Data on 23 compounds can be found in patent publication US8471005B2 (Cephalon, Inc., priority 2008, dated 2013).

Like-named read-outs stand apart in the source and are kept apart here.

Assay [1] concerns the target T1, ALK (Homo sapiens, UniProt Q9UM73).
T1 construct: host or cells: baculovirus expression system
The experiment in a line: ALK Kinase Assay (ELISA/TRF, PLC-γ substrate). In kind it is biochemical. The note with it: read-out: ALK Potency. How it is done:
Briefly, each 96-well plate was coated with […] of 10 μg/mL substrate (phospholipase C-γ) in Tris-buffered saline (TBS). […] The reaction was initiated by adding enzyme (30 ng/ml ALK) and was allowed to proceed at 37° C. for 15 minutes. Detection of the phosphorylated product was performed by adding 100 μl/well of Eu—N1 labeled PT66 antibody (Perkin Elmer # AD0041).
Data analysis was performed using ActivityBase (IDBS, Guilford, UK). IC50 values were calculated by plotting percent inhibition versus log10 of the concentration of compound and fitting to the nonlinear regression sigmoidal dose-response (variable slope) equation in XLFit (IDBS, Guilford, UK).
For orientation: An ELISA detects its analyte on a solid surface through an enzyme-linked reagent.

Assay [2] deals with T2, JAK2 (Homo sapiens, UniProt O60674).
T2 construct: host or cells: baculovirus expression system
The assay is described as follows: Recombinant Human JAK2 Kinase Assay (TRF). In kind it is biochemical. The note with it: read-out: JAK2 Potency. As for the experimental part: Compounds were tested for their ability to inhibit the kinase activity of baculovirus-expressed JAK2 using the TRF detection system. […] The plates were coated first with 100 μL/well of 10 μg/mL Neutravidin (Pierce #31000, Rockford, Ill.) in TBS at 37° C. for 2 hours, followed by 100 μL/well of 1 μg/mL 15-mer peptide substrate (biotinyl-amino-hexanoyl-[…]-amide, Infinity Biotech Research and Resource, Aston, Pa.) at 37° C. for another hour. The JAK2 assay mixture (total volume=100 μL/well) consisting of 20 mM HEPES (pH 7.2), 0.2 μM ATP, 1 mM MnCl2, 0.1% BSA, and test compound (diluted in DMSO; 2.5% DMSO final in assay) was then added to the assay plate. Enzyme (15 ng/ml JAK2) was added and the reaction was allowed to proceed at room temperature for 20 minutes. Detection of the phosphorylated product was performed by adding 100 μL/well of Eu—N1 labeled PY100 antibody (PerkinElmer Life Sciences #AD0041, Boston, Mass.).

Where [3] appears, read: ALK kinase inhibition, 1 μM ATP.
[4] abbreviates: JAK2 kinase inhibition, 0.2 μM ATP.

T2 sequence (O60674 whole entry): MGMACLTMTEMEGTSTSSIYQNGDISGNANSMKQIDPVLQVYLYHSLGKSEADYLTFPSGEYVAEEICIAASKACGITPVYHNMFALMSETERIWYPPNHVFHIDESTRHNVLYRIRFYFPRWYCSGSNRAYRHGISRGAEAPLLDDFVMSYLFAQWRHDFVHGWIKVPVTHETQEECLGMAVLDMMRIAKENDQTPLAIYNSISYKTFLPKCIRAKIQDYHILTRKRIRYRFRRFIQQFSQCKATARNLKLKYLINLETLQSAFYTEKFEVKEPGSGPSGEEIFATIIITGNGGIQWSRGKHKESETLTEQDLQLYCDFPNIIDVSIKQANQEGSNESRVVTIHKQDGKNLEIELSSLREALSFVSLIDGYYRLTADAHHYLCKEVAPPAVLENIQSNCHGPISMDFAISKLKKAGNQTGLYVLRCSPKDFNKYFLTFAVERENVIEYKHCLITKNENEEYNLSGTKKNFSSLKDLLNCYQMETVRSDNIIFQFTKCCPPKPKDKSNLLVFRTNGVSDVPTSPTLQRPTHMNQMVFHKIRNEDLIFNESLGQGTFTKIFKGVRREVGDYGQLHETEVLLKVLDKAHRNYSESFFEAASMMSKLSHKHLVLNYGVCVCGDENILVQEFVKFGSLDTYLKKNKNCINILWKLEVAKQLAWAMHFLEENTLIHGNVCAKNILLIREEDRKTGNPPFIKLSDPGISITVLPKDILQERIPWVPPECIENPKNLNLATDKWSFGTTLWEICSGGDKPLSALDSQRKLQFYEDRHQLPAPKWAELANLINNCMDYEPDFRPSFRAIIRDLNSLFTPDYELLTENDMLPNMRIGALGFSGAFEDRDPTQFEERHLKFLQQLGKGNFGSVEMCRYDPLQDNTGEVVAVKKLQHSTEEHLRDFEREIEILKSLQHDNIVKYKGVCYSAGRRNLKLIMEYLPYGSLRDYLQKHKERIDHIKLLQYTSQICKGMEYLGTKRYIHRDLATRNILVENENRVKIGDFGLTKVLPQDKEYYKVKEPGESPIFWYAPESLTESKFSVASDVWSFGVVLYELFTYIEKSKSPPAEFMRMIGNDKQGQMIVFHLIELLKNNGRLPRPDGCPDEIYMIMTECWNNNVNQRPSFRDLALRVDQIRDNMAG
T1 sequence (Q9UM73 19-1620): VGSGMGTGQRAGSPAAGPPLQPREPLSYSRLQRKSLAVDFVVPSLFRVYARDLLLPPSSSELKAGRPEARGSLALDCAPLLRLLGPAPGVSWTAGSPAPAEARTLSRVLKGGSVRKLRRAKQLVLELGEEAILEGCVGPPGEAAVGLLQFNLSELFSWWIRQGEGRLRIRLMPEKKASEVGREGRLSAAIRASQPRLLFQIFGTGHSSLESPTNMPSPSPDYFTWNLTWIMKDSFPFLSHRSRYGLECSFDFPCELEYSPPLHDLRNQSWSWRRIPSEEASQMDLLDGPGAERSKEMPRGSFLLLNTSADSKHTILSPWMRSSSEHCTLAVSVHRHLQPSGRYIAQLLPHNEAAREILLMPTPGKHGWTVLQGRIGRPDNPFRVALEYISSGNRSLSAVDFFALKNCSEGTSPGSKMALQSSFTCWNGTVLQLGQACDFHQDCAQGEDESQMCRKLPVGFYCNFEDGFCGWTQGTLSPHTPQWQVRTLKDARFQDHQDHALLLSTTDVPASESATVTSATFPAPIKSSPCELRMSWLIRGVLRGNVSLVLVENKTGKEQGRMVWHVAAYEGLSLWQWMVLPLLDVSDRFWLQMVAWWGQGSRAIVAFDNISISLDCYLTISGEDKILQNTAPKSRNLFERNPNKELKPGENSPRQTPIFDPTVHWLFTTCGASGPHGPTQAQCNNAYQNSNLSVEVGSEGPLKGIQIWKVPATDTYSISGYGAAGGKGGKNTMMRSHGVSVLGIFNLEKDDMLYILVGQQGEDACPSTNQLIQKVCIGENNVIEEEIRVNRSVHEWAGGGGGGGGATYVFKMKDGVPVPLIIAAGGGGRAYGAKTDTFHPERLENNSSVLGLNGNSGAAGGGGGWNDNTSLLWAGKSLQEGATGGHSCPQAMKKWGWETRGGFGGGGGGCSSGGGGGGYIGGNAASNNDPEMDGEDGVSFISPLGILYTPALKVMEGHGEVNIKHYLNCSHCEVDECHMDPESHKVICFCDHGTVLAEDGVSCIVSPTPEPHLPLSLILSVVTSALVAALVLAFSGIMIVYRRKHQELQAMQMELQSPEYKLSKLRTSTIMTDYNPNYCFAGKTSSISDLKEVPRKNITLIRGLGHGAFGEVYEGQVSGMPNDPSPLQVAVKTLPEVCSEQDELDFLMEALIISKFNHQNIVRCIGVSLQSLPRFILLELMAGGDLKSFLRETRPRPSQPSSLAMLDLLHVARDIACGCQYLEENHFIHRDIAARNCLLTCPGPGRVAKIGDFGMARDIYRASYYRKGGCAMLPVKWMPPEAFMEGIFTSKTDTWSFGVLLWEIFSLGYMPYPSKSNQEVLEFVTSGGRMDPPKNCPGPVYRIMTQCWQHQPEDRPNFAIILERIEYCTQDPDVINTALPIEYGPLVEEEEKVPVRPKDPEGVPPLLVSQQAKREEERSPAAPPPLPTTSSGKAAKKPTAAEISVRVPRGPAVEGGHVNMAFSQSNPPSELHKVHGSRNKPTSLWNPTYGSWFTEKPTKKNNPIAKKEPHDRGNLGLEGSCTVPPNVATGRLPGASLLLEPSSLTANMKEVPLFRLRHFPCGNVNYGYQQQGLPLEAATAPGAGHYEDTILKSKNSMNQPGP

In the case of “1-[7-(2-Methoxy-phenyl)-pyrrolo[2,1-f][1,2,4]triazin-2-yl]-1H-imidazo[4,5-c]pyridine [Example 322]”, the figures for the IC50 in assay [1] (ALK Kinase Inhibition) and in assay [2] (JAK2 Kinase Inhibition) were 1000 to 10000 nM and 100 to 1000 nM, respectively.

Regarding “2-Methyl-propane-2-sulfonic acid (3-{2-[4-(4-diethylamino-piperidin-1-yl)-phenylamino]-pyrrolo[2,1-f][1,2,4]triazin-7-yl}-phenyl)-amide [Example 1217]”, the IC50 in assay [1] (setting [3]) and in assay [2] (setting [4]) was less than 100 nM each time.

As to “3-(2-{2-[3-(2-Methoxy-1-methyl-ethoxy)-phenylamino]-pyrrolo[2,1-f][1,2,4]triazin-7-yl}-pyrrol-1-yl)-propionitrile [Example 1295]”, the IC50 in assay [1] (setting [3]) is more than 10000 nM; in assay [2] (setting [4]), 100 to 1000 nM.

Turning to “4-[2-(4-Morpholin-4-yl-phenylamino)-pyrrolo[2,1-f][1,2,4]triazin-7-yl]-piperidine-1-carboxylic acid tert-butyl ester [Example 1128]”, the IC50 in assay [1] (setting [3]) is more than 10000 nM; in assay [2] (setting [4]) it was less than 100 nM.

“7-(2-Methoxy-phenyl)-2-(2-methoxy-4-piperazin-1-ylmethyl-phenoxy)-pyrrolo[2,1-f][1,2,4]triazine [Example 1238]”: the IC50 in assay [1] (setting [3]) was less than 100 nM; in assay [2] (setting [4]) it was 100 to 1000 nM.

As for “7-(2-methoxy-phenyl)-pyrrolo(2,1-f)(1,2,4)triazin-2-yl-6-amino-1′-methyl-spiro(2H-1-benzopyran-2,4′-piperidine) [Example 377]”, the IC50 in assay [1] (ALK Kinase Inhibition) and in assay [2] (JAK2 Kinase Inhibition) was less than 100 nM in each case.

Consider `COc1cc([C@@]2(O)CCN(C)C[C@@H]2O)ccc1Nc1ncc2ccc(-c3ccccc3OC)n2n1` (racemic) [Example 829, (±)-(3S,4S)-4-{3-Methoxy-4-[7-(2-methoxy-phenyl)-pyrrolo[2,1-f][1,2,4]triazin-2-ylamino]-phenyl}-1-methyl-piperidine-3,4-diol], for which the IC50 in assay [2] (setting [4]) is less than 100 nM.

Regarding `COc1cc(C2CCN(C)CC2O)ccc1Nc1ncc2ccc(-c3ccccc3OC)n2n1` (racemic) [Example 830, (±)-4-{3-Methoxy-4-[7-(2-methoxy-phenyl)-pyrrolo[2,1-f][1,2,4]triazin-2-ylamino]-phenyl}-1-methyl-piperidin-3-ol], the IC50 in assay [2] (setting [4]) was less than 100 nM.

`COc1cc([C@@]2(O)CCN(C(=O)OC(C)(C)C)C[C@@H]2O)ccc1Nc1ncc2ccc(-c3ccccc3OC)n2n1` (racemic) [Example 831, (±)-(3S,4S)-3,4-Dihydroxy-4-{3-methoxy-4-[7-(2-methoxy-phenyl)-pyrrolo[2,1-f][1,2,4]triazin-2-ylamino]-phenyl}-piperidine-1-carboxylic acid tert-butyl ester]: the IC50 in assay [2] (setting [4]) is 100 to 1000 nM.

In the case of `COc1cc([C@@]2(O)CCNC[C@@H]2O)ccc1Nc1ncc2ccc(-c3ccccc3OC)n2n1` (racemic) [Example 832, (±)-(3S,4S)-4-{3-Methoxy-4-[7-(2-methoxy-phenyl)-pyrrolo[2,1-f][1,2,4]triazin-2-ylamino]-phenyl}-piperidine-3,4-diol], the IC50 in assay [2] (setting [4]) is less than 100 nM.

For `COc1cc([C@@H]2CCNC[C@@H]2O)ccc1Nc1ncc2ccc(-c3ccccc3OC)n2n1` (racemic) [Example 835, (±)-(3R,4S)-4-{3-Methoxy-4-[7-(2-methoxy-phenyl)-pyrrolo[2,1-f][1,2,4]triazin-2-ylamino]-phenyl}-piperidin-3-ol], the IC50 in assay [2] (setting [4]) lay in the range of 100 to 1000 nM.

For the compound `COc1cc([C@@H]2CCN(CC(N)=O)C[C@@H]2O)ccc1Nc1ncc2ccc(-c3ccccc3OC)n2n1` (racemic) [Example 839, (±)-2-43R,4S)-3-Hydroxy-4-{3-methoxy-4-[7-(2-methoxy-phenyl)-pyrrolo[2,1-f][1,2,4]triazin-2-ylamino]-phenyl}-piperidin-1-yl)-acetamide], the IC50 in assay [2] (setting [4]) fell in the range of 100 to 1000 nM.

On to `COc1cc([C@@]2(O)CCNC[C@@H]2O)ccc1Nc1ncc2ccc(-c3ccccc3N(C)S(C)(=O)=O)n2n1` (racemic) [Example 840, (±)-N-(2-{2-[4-((3S,4S)-3,4-Dihydroxy-piperidin-4-yl)-2-methoxy-phenylamino]-pyrrolo[2,1-f][1,2,4]triazin-7-yl}-phenyl)-N-methyl-methanesulfonamide], for which the IC50 in assay [2] (setting [4]) lay in the range of 1000 to 10000 nM.

Turning to `COc1cc([C@@]2(O)CCN(CC(N)=O)C[C@@H]2O)ccc1Nc1ncc2ccc(-c3ccccc3N(C)S(C)(=O)=O)n2n1` (racemic) [Example 844, (±)-2-[(3S,4S)-3,4-Dihydroxy-4-(4-{7-[2-(methanesulfonyl-methyl-amino)-phenyl]-pyrrolo[2,1-f][1,2,4]triazin-2-ylamino}-3-methoxy-phenyl)-piperidin-1-yl]-acetamide], the IC50 in assay [2] (setting [4]) was 100 to 1000 nM.

As to `COc1cc([C@@H]2CCN(CCO)C[C@@H]2O)ccc1Nc1ncc2ccc(-c3ccccc3OC)n2n1` (racemic) [Example 848, (±)-(3R,4S)-1-(2-Hydroxy-ethyl)-4-{3-methoxy-4-[7-(2-methoxy-phenyl)-pyrrolo[2,1-f][1,2,4]triazin-2-ylamino]-phenyl}-piperidin-3-ol], the IC50 in assay [2] (setting [4]) is less than 100 nM.

As for `COc1cc([C@@]2(O)CCN(CC(N)=O)C[C@@H]2O)ccc1Nc1ncc2ccc(-c3ccccc3OC)n2n1` (racemic) [Example 849, (±)-2-43S,4S)-3,4-Dihydroxy-4-{3-methoxy-4-[7-(2-methoxy-phenyl)-pyrrolo[2,1-f][1,2,4]triazin-2-ylamino]-phenyl}-piperidin-1-yl)-acetamide], the IC50 in assay [2] (setting [4]) was less than 100 nM.

`COc1cc([C@@H]2CCNC[C@H]2O)ccc1Nc1ncc2ccc(-c3ccccc3OC)n2n1` (racemic) [Example 855, (±)-(3S,4S)-4-{3-Methoxy-4-[7-(2-methoxy-phenyl)-pyrrolo[2,1-f][1,2,4]triazin-2-ylamino]-phenyl}-piperidin-3-ol]: in assay [2] (setting [4]), the IC50 was 100 to 1000 nM.

Turning to `COc1cc([C@@H]2CCN(CCO)C[C@H]2O)ccc1Nc1ncc2ccc(-c3ccccc3OC)n2n1` (racemic) [Example 856, (±)-(3S,4S)-1-(2-Hydroxy-ethyl)-4-{3-methoxy-4-[7-(2-methoxy-phenyl)-pyrrolo[2,1-f][1,2,4]triazin-2-ylamino]-phenyl}-piperidin-3-ol], the IC50 in assay [2] (setting [4]) was less than 100 nM.

With `COc1ccc(Cl)cc1-c1ccc2cnc(Nc3ccc(C(C)C)c(NC(C)=O)c3)nn12` [Example 302, N-{5-[7-(5-Chloro-2-methoxy-phenyl)-pyrrolo[2,1-f][1,2,4]triazin-2-ylamino]-2-isopropyl-phenyl}-acetamide], in assay [2] (JAK2 Kinase Inhibition), the IC50 was less than 100 nM.

`CN1CCN(c2ccc(Nc3ncc4cc(-c5cccnc5)cn4n3)cc2)CC1` [Example 1157]: the IC50 in assay [2] (setting [4]) fell in the range of 100 to 1000 nM.

Regarding `COc1cc(N2CCCC(N3CCNCC3)C2)ccc1Nc1ncc2ccc(-c3ccccc3OC)n2n1` (centres unmarked) [Example 1448, [7-(2-Methoxy-phenyl)-pyrrolo[2,1-f][1,2,4]triazin-2-yl]-[2-methoxy-4-(3-piperazin-1-yl-piperidin-1-yl)-phenyl]-amine], the IC50 in assay [1] (ALK Kinase Inhibition) is less than 100 nM.

Consider `COc1cc(N2CCC(N3CCOCC3)CC2)ccc1Nc1ncc2ccc(-c3cccc(N(C)S(C)(=O)=O)c3)n2n1` [Example 1449, N-(3-{2-[2-Methoxy-4-(4-morpholin-4-yl-piperidin-1-yl)-phenylamino]-pyrrolo[2,1-f][1,2,4]triazin-7-yl}-phenyl)-N-methyl-methanesulfonamide], for which the IC50 in assay [1] (ALK Kinase Inhibition) was less than 100 nM.

For the compound “N-tert-Butyl-3-{2-[3-fluoro-4-(4-methyl-piperazin-1-yl)-phenylamino]-pyrrolo[2,1-f][1,2,4]triazin-7-yl}-benzenesulfonamide [Example 1216]”, the IC50 in assay [1] (setting [3]) fell in the range of 100 to 1000 nM.
